Experimental data reported in PMC6755814, “Crystal structure of the first eukaryotic bilin reductase GtPEBB reveals a flipped binding mode of dihydrobiliverdin” (The Journal of Biological Chemistry, 2019).

Assays:
[1] = target: T1, mGtPEBB (Guillardia theta, UniProt L1IWQ9, R298M); experiment: UV/Vis spectral shift; anaerobic reductase assay with HPLC; type: biochemical; conditions: pH 7.5, ferredoxin from Synechococcus sp. PCC7002, NADPH regenerating system; product DHBV, low efficiency
T1 construct: gene GUITHDRAFT_96430; GST fusion in E. coli, cut by TEV protease, leaving N-terminal Gly-Gly; single-domain protein; codon-optimized gene
T1 sequence (L1IWQ9 entry or part of it R298M): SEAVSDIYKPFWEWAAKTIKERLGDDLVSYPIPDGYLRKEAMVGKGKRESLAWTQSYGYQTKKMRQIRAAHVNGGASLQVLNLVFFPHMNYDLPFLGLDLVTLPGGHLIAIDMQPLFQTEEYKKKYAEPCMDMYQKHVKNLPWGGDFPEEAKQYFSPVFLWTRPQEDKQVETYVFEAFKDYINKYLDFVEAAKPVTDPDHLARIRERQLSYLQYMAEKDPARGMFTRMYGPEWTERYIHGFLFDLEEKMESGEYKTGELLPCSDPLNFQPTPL

[2] = target: T2, mGtPEBB (Guillardia theta, UniProt L1IWQ9); experiment: UV/Vis spectral shift; HPLC of products; type: binding; conditions: pH 7.5, 10 μM protein, 10 μM bilin; unnatural ligand, not reduced
T2 construct: gene GUITHDRAFT_96430; GST fusion in E. coli, cut by TEV protease, leaving N-terminal Gly-Gly; single-domain protein; codon-optimized gene
T2 sequence (L1IWQ9 84-356): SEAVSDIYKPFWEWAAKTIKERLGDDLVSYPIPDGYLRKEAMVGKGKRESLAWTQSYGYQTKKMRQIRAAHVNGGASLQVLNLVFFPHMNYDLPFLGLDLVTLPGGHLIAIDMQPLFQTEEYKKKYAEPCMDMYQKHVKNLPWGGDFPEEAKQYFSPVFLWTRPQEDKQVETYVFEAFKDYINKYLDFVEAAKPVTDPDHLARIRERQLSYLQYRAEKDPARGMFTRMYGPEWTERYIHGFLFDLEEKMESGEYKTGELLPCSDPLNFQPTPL

[3] = target: T3, mGtPEBB (Guillardia theta, UniProt L1IWQ9, R298S); experiment: UV/Vis spectral shift; anaerobic reductase assay with HPLC; type: binding; conditions: pH 7.5, ferredoxin from Synechococcus sp. PCC7002, NADPH regenerating system
T3 construct: gene GUITHDRAFT_96430; GST fusion in E. coli, cut by TEV protease, leaving N-terminal Gly-Gly; single-domain protein; codon-optimized gene
T3 sequence (L1IWQ9 entry or part of it R298S): as the sequence (L1IWQ9 entry or part of it R298M) above, with M215S counted along it

[4] = target: T4, mGtPEBB (Guillardia theta, UniProt L1IWQ9, D302N); experiment: as above; type: binding; conditions: pH 7.5, ferredoxin from Synechococcus sp. PCC7002, NADPH regenerating system
T4 construct: gene GUITHDRAFT_96430; GST fusion in E. coli, cut by TEV protease, leaving N-terminal Gly-Gly; single-domain protein; codon-optimized gene
T4 sequence (L1IWQ9 entry or part of it D302N): as the sequence (L1IWQ9 entry or part of it R298M) above, with M215R, D219N counted along it

[5] = target: T5, mGtPEBB (Guillardia theta, UniProt L1IWQ9, R298L); experiment: as above; type: binding; conditions: pH 7.5, ferredoxin from Synechococcus sp. PCC7002, NADPH regenerating system
T5 construct: gene GUITHDRAFT_96430; GST fusion in E. coli, cut by TEV protease, leaving N-terminal Gly-Gly; single-domain protein; codon-optimized gene
T5 sequence (L1IWQ9 entry or part of it R298L): as the sequence (L1IWQ9 entry or part of it R298M) above, with M215L counted along it

[6] = target: T6, mGtPEBB (Guillardia theta, UniProt L1IWQ9, R298K); experiment: as above; type: biochemical; conditions: pH 7.5, ferredoxin from Synechococcus sp. PCC7002, NADPH regenerating system
T6 construct: gene GUITHDRAFT_96430; GST fusion in E. coli, cut by TEV protease, leaving N-terminal Gly-Gly; single-domain protein; codon-optimized gene
T6 sequence (L1IWQ9 entry or part of it R298K): as the sequence (L1IWQ9 entry or part of it R298M) above, with M215K counted along it

[7] = target: T7, mGtPEBB (Guillardia theta, UniProt L1IWQ9, R298A); experiment: as above; type: biochemical; conditions: pH 7.5, ferredoxin from Synechococcus sp. PCC7002, NADPH regenerating system; trace conversion only
T7 construct: gene GUITHDRAFT_96430; GST fusion in E. coli, cut by TEV protease, leaving N-terminal Gly-Gly; single-domain protein; codon-optimized gene
T7 sequence (L1IWQ9 entry or part of it R298A): as the sequence (L1IWQ9 entry or part of it R298M) above, with M215A counted along it

[8] = target: T8, mGtPEBB (Guillardia theta, UniProt L1IWQ9, D182N); experiment: as above; type: binding; conditions: pH 7.5, ferredoxin from Synechococcus sp. PCC7002, NADPH regenerating system
T8 construct: gene GUITHDRAFT_96430; GST fusion in E. coli, cut by TEV protease, leaving N-terminal Gly-Gly; single-domain protein; codon-optimized gene
T8 sequence (L1IWQ9 entry or part of it D182N): as the sequence (L1IWQ9 entry or part of it R298M) above, with D99N, M215R counted along it

[9] = target: T1, mGtPEBB; experiment: as above; type: binding; conditions: pH 7.5, ferredoxin from Synechococcus sp. PCC7002, NADPH regenerating system
[10] = target: T2, mGtPEBB; experiment: X-ray crystal structure of complex, […] Å; UV/Vis spectral shift; anaerobic reductase assay with HPLC; type: binding; conditions: co-crystal at pH 8.5; assay pH 7.5 with ferredoxin from Synechococcus sp. PCC7002, NADPH regenerating system; active site, flipped orientation

Row | SMILES | UV/Vis spectral shift; anaerobic reductase assay with HPLC [1] | UV/Vis spectral shift; HPLC of products [2] | UV/Vis spectral shift; anaerobic reductase assay with HPLC [3] | UV/Vis spectral shift; anaerobic reductase assay with HPLC [4] | UV/Vis spectral shift; anaerobic reductase assay with HPLC [5] | UV/Vis spectral shift; anaerobic reductase assay with HPLC [6] | UV/Vis spectral shift; anaerobic reductase assay with HPLC [7] | UV/Vis spectral shift; anaerobic reductase assay with HPLC [8] | UV/Vis spectral shift; anaerobic reductase assay with HPLC [9] | X-ray crystal structure of complex, 1.65 Å; UV/Vis spectral shift; anaerobic red [10]
1 | C=CC1=C(C)C(=Cc2[nH]c(C=C3N=C(C=C4NC(=O)C(C)=C4C=C)C(C)=C3CCC(=O)O)c(CCC(=O)O)c2C)NC1=O [BV] | R215M was able to convert BV to DHBV | indicated binding of this unnatural substrate |  |  |  |  |  |  |  | 
2 | C=CC1=C(C)C(=O)NC1=CC1=NC(=Cc2[nH]c(CC3NC(=O)C(C=C)=C3C)c(C)c2CCC(=O)O)C(CCC(=O)O)=C1C (stereo not shown) [DHBV] |  |  | both R215S and R215M showed binding spectra similar to WT | caused a blue shift of the maximum of the DHBV-binding spectrum | the binding spectrum of R215L was very similar to the WT spectrum | Replacing Arg-215 with lysine maintained side chain charge and size to some extent | only trace amounts of PEB were detected for R215A | caused a blue shift of the maximum of the DHBV-binding spectrum | both R215S and R215M showed binding spectra similar to WT | Both chains showed clear density for DHBV already after molecular replacement
